Experimental data taken from patent US8809341B2, “2,4-pyrimidinediamine compounds and uses as anti-proliferative agents” (Rigel Pharmaceuticals, Inc., priority 2003, dated 2014).
Each block holds one compound with its values, some of them ahead of it.

Experiments:
[1] = tested on: H1299 cells; assay: in vitro antiproliferation assay, H1299 (lung); format: cell-based
Method in brief: (§1)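 IC50 values came from standard antiproliferation testing in cultured tumour cells; the A549 and H1299 lines are of lung origin.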

[2] = tested on: A549 cells; assay: in vitro antiproliferation assay, A549 (lung); format: cell-based
Method in brief: as §1

[3] = Table 7, in vitro antiproliferation, H1299 (lung) cells
[4] = Table 7, in vitro antiproliferation, A549 (lung) cells
[5] = IC50 class against H1299 (lung) tumor cells
[6] = IC50 class against A549 (lung) tumor cells
[7] = H1299 (lung) cells, antiproliferation
[8] = A549 (lung) cells, antiproliferation
[9] = H1299 (lung) cells, in vitro antiproliferation
[10] = A549 (lung) cells, in vitro antiproliferation
[11] = Table 5, in vitro antiproliferation, H1299 (lung) cells
[12] = Table 5, in vitro antiproliferation, A549 (lung) cells

IC50 [1, 3]: ≤ 20 µM
IC50 [2, 4]: ≤ 20 µM
SMILES: CNC(=O)c1cc2cccc(Nc3ncc(F)c(Nc4ccc5c(c4)OC(F)(F)C(F)(F)O5)n3)c2[nH]1 [compound 653]

IC50 [1, 9]: ≤ 20 µM
IC50 [2, 10]: ≤ 20 µM
SMILES: COc1cc(Nc2nc(Nc3ccc(N4CCN(C(C)=O)CC4)cc3)ncc2F)cc(OC)c1 [compound 866]

IC50 [1, 7]: > 20 µM
IC50 [2, 8]: > 20 µM
SMILES: COC(=O)c1cc(Nc2ncc(F)c(Nc3cc(C(=O)OC)cc(-c4ncco4)c3)n2)cc(-c2ncco2)c1 [compound 891]

IC50 [1, 7]: ≤ 20 µM
IC50 [2, 8]: ≤ 20 µM
SMILES: CNC(=O)c1ccc(Nc2ncc(F)c(Nc3cc(OC)cc(OC)c3)n2)cc1Cl [compound 872]

IC50 [1, 11]: > 20 µM
IC50 [2, 12]: > 20 µM
SMILES: Cc1cc(Nc2ncc(F)c(Nc3ccc4c(c3)OC(F)(F)O4)n2)cc(C)c1Cl [compound 565]

IC50 ([1]; Homo sapiens, NCI-H1299, IC50 class against H1299 (lung) tumor cells): ≤ 20 µM
IC50 ([2]; Homo sapiens, IC50 class against A549 (lung) tumor cells): ≤ 20 µM
SMILES: CN1CCN(c2ccc(Nc3ncc(F)c(Nc4cc(C(C)(C)C)[nH]n4)n3)cc2)CC1 [compound 204]

IC50 [1, 9]: > 20 µM
IC50 [2, 10]: ≤ 20 µM
SMILES: Cc1cc(C)cc(Nc2nc(Nc3cc(C)cc(C(F)(F)F)c3)ncc2F)c1 [compound 816]

IC50 ([1]; H1299 (lung) cells): ≤ 20 µM
IC50 ([2]; A549 (lung) cells): ≤ 20 µM
SMILES: CCCn1ncc2cc(Nc3ncc(F)c(Nc4ccc(OC)c(Cl)c4)n3)ccc21 [compound 1074]

IC50 ([1]; Homo sapiens, NCI-H1299, H1299 (lung) cells): ≤ 20 µM
IC50 ([2]; Homo sapiens, A549 (lung) cells): ≤ 20 µM
SMILES: COc1cc(Nc2nc(Nc3cc(OC)c(Cl)cc3OC)ncc2F)cc(OC)c1 [compound 1159]

IC50 [1, 3]: ≤ 20 µM
IC50 [2, 4]: ≤ 20 µM
SMILES: CCOC(=O)c1cc2cccc(Nc3ncc(F)c(Nc4ccc(OC)c(OC)c4)n3)c2[nH]1 [compound 664]

IC50 ([1]; in vitro antiproliferation, H1299 (lung) cells, Table 4, compounds with no designated stereochemistry tested as racemate): > 20 µM
IC50 ([2]; in vitro antiproliferation, A549 (lung) cells, Table 4, compounds with no designated stereochemistry tested as racemate): ≤ 20 µM
SMILES: C[C@@H]1Oc2ccc(Nc3nc(Nc4cccc(-c5cnco5)c4)ncc3F)cc2NC1=O [compound 240]

IC50 [1, 7]: ≤ 20 µM
IC50 [2, 8]: ≤ 20 µM
SMILES: CC(=O)c1cc(Nc2ncc(F)c(Nc3cccc(O)c3)n2)cc(-c2ncco2)c1 [compound 888]

IC50 [1, 9]: ≤ 20 µM
IC50 [2, 10]: ≤ 20 µM
SMILES: COc1ccc(Nc2nc(Nc3cc(Cl)cc(Cl)c3)ncc2F)cc1Cl [compound 808]

IC50 [1, 11]: > 20 µM
IC50 [2, 12]: ≤ 20 µM
SMILES: Cc1cc(Nc2ncc(F)c(Nc3ccc4c(c3)OC(F)(F)C(F)(F)O4)n2)cc(C(F)(F)F)c1 [compound 538]

IC50 [1, 7]: ≤ 20 µM
IC50 [2, 8]: ≤ 20 µM
SMILES: COc1cc(Nc2ncc(F)c(N(C)c3ccc(OC)c(Cl)c3)n2)cc(OC)c1 [compound 903]

IC50 [1, 11]: ≤ 20 µM
IC50 [2, 12]: > 20 µM
SMILES: Cc1cc(Nc2ncc(F)c(Nc3ccc4c(c3)OC(F)(F)C(F)(F)O4)n2)cc(C)c1Cl [compound 533]

IC50 [1, 3]: ≤ 20 µM
IC50 [2, 4]: ≤ 20 µM
SMILES: CNC(=O)c1cc2cccc(Nc3ncc(F)c(N(C)c4cc(OC)cc(OC)c4)n3)c2[nH]1 [compound 663]

IC50 [1, 5]: ≤ 20 µM
IC50 [2, 6]: ≤ 20 µM
SMILES: Fc1cnc(Nc2ccc(N3CCOCC3)cc2)nc1NC1CCC1 [compound 132]

Second part, the compound before the results:

SMILES: CCOC(=O)N1CCN(c2ccc(Nc3ncc(F)c(N(C)C4CCC4)n3)cc2)CC1 [compound 126]
IC50 [1, 5]: ≤ 20 µM
IC50 [2, 6]: ≤ 20 µM

SMILES: CNC(=O)COc1ccc(Nc2nc(Nc3ccc(OC)c(Cl)c3)ncc2F)cc1Cl [compound 917]
IC50 [1, 7]: ≤ 20 µM
IC50 [2, 8]: ≤ 20 µM

SMILES: CNC(=O)COc1c(C)cc(Nc2ncc(F)c(N(C)c3ccc(OC)c(Cl)c3)n2)cc1C [compound 905]
IC50 [1, 7]: ≤ 20 µM
IC50 [2, 8]: ≤ 20 µM

SMILES: CNC(=O)COc1ccc(Nc2ncc(F)c(Nc3ccc(OC)c(Cl)c3)n2)cc1 [compound 1025]
IC50 [1, 7]: ≤ 20 µM
IC50 [2, 8]: > 20 µM

SMILES: Fc1cnc(Nc2cccc(-c3cnco3)c2)nc1Nc1ccc2c(c1)NCCO2 [compound 591]
IC50 [1, 5]: ≤ 20 µM
IC50 [2, 6]: ≤ 20 µM

SMILES: Fc1cnc(Nc2ccc(OC(F)F)c(Cl)c2)nc1Nc1ccc2c(c1)OCCO2 [compound 526]
IC50 [1, 11]: > 20 µM
IC50 [2, 12]: ≤ 20 µM

SMILES: CC(=O)N(C)c1ccc(Nc2ncc(F)c(NC3CCCCC3)n2)cc1 [compound 150]
IC50 [1, 5]: ≤ 20 µM
IC50 [2, 6]: ≤ 20 µM

SMILES: CC(C)(CC1CCCCC1)n1ncc2ccc(Nc3ncc(F)c(Nc4ccc(Cl)c(Cl)c4)n3)cc21 [compound 1095]
IC50 ([1]; H1299 (lung) cells): ≤ 20 µM
IC50 ([2]; A549 (lung) cells): ≤ 20 µM

SMILES: COc1ccc(Nc2ncc(F)c(Nc3ccc(OC)cc3)n2)cc1 [compound 702]
IC50 [1, 9]: ≤ 20 µM
IC50 [2, 10]: ≤ 20 µM

SMILES: Fc1cc(Nc2ncc(F)c(Nc3ccc4c(c3)OCCO4)n2)cc(C(F)(F)F)c1 [compound 522]
IC50 [1, 11]: > 20 µM
IC50 [2, 12]: > 20 µM

SMILES: CCCn1ncc2ccc(Nc3ncc(F)c(Nc4ccc5c(c4)NC(=O)C(C)(C)O5)n3)cc21 [compound 1080]
IC50 ([1]; H1299 (lung) cells): ≤ 20 µM
IC50 ([2]; A549 (lung) cells): ≤ 20 µM

SMILES: CNC(=O)COc1c(C)cc(Nc2ncc(F)c(Nc3ccc4c(c3)OCCO4)n2)cc1C [compound 569]
IC50 [1, 11]: ≤ 20 µM
IC50 [2, 12]: ≤ 20 µM

SMILES: COc1cc(Nc2nc(Nc3cccc(N4CCN(C(C)=O)CC4)c3)ncc2F)cc(OC)c1 [compound 861]
IC50 [1, 9]: ≤ 20 µM
IC50 [2, 10]: ≤ 20 µM
